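Growth conditions: 96-well plates. Treatment: test compound, 48 hours, 5 concentrations. Analysis: linear interpolation between bracketing concentrations; unreached endpoints set to highest concentration. Abbreviation: GI50, concentration required for 50% inhibition of growth. TGI: concentration producing complete growth inhibition.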
Experiments:
Assay in all cases: growth of human tumour cells (NCI), 48 h
[1] = test system: UACC-257 melanoma
[2] = test system: OVCAR-4 ovarian
[3] = test system: MCF7 breast
[4] = test system: TK-10 renal
[5] = test system: M14 melanoma
[6] = test system: EKVX NSCLC
[7] = test system: OVCAR-3 ovarian
[8] = test system: OVCAR-8 ovarian
[9] = test system: MDA-MB-435
[10] = test system: ACHN renal
[11] = test system: SR leukemia
[12] = test system: MDA-MB-231 breast
[13] = test system: SNB-75 CNS
[14] = test system: HCT-15 colon
[15] = test system: HCC-2998 colon
[16] = test system: HS 578T breast
[17] = test system: A549 NSCLC
[18] = test system: SK-MEL-5 melanoma
[19] = test system: OVCAR-5 ovarian
[20] = test system: NCI-H460 lung
[21] = test system: CCRF-CEM leukemia
[22] = test system: SN12C renal
[23] = test system: U251 CNS
[24] = test system: RXF 393 renal
[25] = test system: SF-539 CNS
[26] = test system: IGROV1 ovarian
[27] = test system: BT-549 breast
[28] = test system: A498 renal
[29] = test system: MALME-3M melanoma
[30] = test system: HL-60(TB) leukemia
[31] = test system: NCI-H23 lung
[32] = test system: HCT-116 colon
[33] = test system: MOLT-4 leukemia
[34] = test system: PC-3 prostate
[35] = test system: SF-295 CNS
[36] = test system: UACC-62 melanoma
[37] = test system: SK-OV-3 ovarian
[38] = test system: HOP-62 NSCLC
[39] = test system: SNB-19 CNS
[40] = test system: SK-MEL-28 melanoma
[41] = test system: UO-31 renal
[42] = test system: KM12 colon
[43] = test system: HOP-92 NSCLC
[44] = test system: RPMI-8226 leukemia
[45] = test system: CAKI-1 renal
[46] = test system: NCI/ADR-RES ovarian
[47] = test system: NCI-H226 lung
[48] = test system: NCI-H522 lung
[49] = test system: DU-145 prostate
[50] = test system: SF-268 CNS
[51] = test system: COLO 205 colon
[52] = test system: SW-620 colon
[53] = test system: HT29 colon
[54] = test system: SK-MEL-2 melanoma
[55] = test system: T-47D breast
[56] = test system: 786-0 renal
[57] = test system: K-562 leukemia

In the case of `CO[C@H](C(=O)[C@@H](O)[C@@H](C)O)[C@@H]1Cc2cc3cc(O[C@H]4C[C@@H](O[C@H]5C[C@@H](O)[C@H](O)C(C)O5)[C@H](O)C(C)O4)c(C)c(O)c3c(O)c2C(=O)[C@H]1O[C@H]1C[C@@H](O[C@H]2C[C@@H](O[C@H]3C[C@](C)(O)C(=O)C(C)O3)[C@@H](O)C(C)O2)[C@H](O)C(C)O1` (some centres not stated), the GI50 [1] is reported as 99.5 nM, the TGI [1] is reported as 2270 nM and the GI50 [2] is reported as 124 nM. The TGI [2] was 7040 nM, the GI50 [3] was 20.8 nM and the TGI [3] was over 33200 nM. For the same molecule, the GI50 [4] was 210 nM, the TGI [4] was over 11800 nM and the GI50 [5] was 120 nM. The TGI [5] was 817 nM, the GI50 [6] was 168 nM and the TGI [6] was over 12300 nM. For the same molecule, the GI50 [7] was 90.7 nM, the TGI [7] was 3540 nM and the GI50 [8] was 99.1 nM. It also gave a TGI [8] of over 33200 nM, a GI50 [9] of 64.6 nM and a TGI [9] of 252 nM. It also gave a GI50 [10] of 154 nM, a TGI [10] of 1550 nM and a GI50 [11] of 38.5 nM. For the same molecule, the TGI [11] was over 33200 nM, the GI50 [12] was 145 nM and the TGI [12] was 9970 nM. The GI50 [13] was 45 nM, the TGI [13] was 211 nM and the GI50 [14] was 889 nM. For the same molecule, the TGI [14] was over 33200 nM, the GI50 [15] was 222 nM and the TGI [15] was 1720 nM. The GI50 [16] was 72.3 nM, the TGI [16] was 8250 nM and the GI50 [17] was 106 nM. The TGI [17] was over 33200 nM, the GI50 [18] was 38.5 nM and the TGI [18] was 136 nM. For the same molecule, the GI50 [19] was 115 nM, the TGI [19] was over 22100 nM and the GI50 [20] was 32.3 nM. It also gave a TGI [20] of over 33200 nM, a GI50 [21] of 211 nM and a TGI [21] of over 33200 nM. The GI50 [22] was 93 nM, the TGI [22] was over 33200 nM and the GI50 [23] was 31 nM. For the same molecule, the TGI [23] was over 33200 nM, the GI50 [24] was 51.5 nM and the TGI [24] was 119 nM. It also gave a GI50 [25] of 47.3 nM, a TGI [25] of 224 nM and a GI50 [26] of 132 nM. The TGI [26] was over 33200 nM, the GI50 [27] was 35.6 nM and the TGI [27] was 157 nM. For the same molecule, the GI50 [28] was 18.5 nM, the TGI [28] was 147 nM and the GI50 [29] was 38.8 nM. For the same molecule, the TGI [29] was 280 nM, the GI50 [30] was 592 nM and the TGI [30] was over 21000 nM. It also gave a GI50 [31] of 77.1 nM, a TGI [31] of 1070 nM and a GI50 [32] of 44.4 nM. It also gave a TGI [32] of over 15700 nM, a GI50 [33] of 193 nM and a TGI [33] of over 19100 nM. The GI50 [34] was 151 nM, the TGI [34] was 32200 nM and the GI50 [35] was 82.8 nM. The TGI [35] was 6120 nM, the GI50 [36] was 18.7 nM and the TGI [36] was 102 nM. For the same molecule, the GI50 [37] was 139 nM, the TGI [37] was over 33200 nM and the GI50 [38] was 65.3 nM. For the same molecule, the GI50 [39] was 71.5 nM, the TGI [39] was over 33200 nM and the GI50 [40] was 53 nM. The TGI [40] was 203 nM, the GI50 [41] was 159 nM and the TGI [41] was 1600 nM. The GI50 [42] was 67.2 nM, the TGI [42] was 6670 nM and the GI50 [43] was 85.2 nM. It also gave a TGI [43] of 801 nM, a GI50 [44] of 100 nM and a TGI [44] of 1610 nM. The GI50 [45] was 924 nM, the TGI [45] was over 33200 nM and the GI50 [46] was 15300 nM. The TGI [46] was over 33200 nM, the GI50 [47] was 45.7 nM and the TGI [47] was 300 nM. The GI50 [48] was 28.8 nM, the TGI [48] was 285 nM and the GI50 [49] was 127 nM. It also gave a TGI [49] of over 33200 nM, a GI50 [50] of 65 nM and a TGI [50] of over 33200 nM. The GI50 [51] was 53 nM, the TGI [51] was 459 nM and the GI50 [52] was 75 nM. For the same molecule, the TGI [52] was over 33200 nM, the GI50 [53] was 85.2 nM and the TGI [53] was 866 nM. It also gave a GI50 [54] of 59 nM, a TGI [54] of 156 nM and a GI50 [55] of 66.3 nM. The GI50 [56] was 101 nM, the TGI [56] was 17100 nM and the GI50 [57] was 100 nM. For the same molecule, the TGI [57] was over 33200 nM.

Source: PubChem BioAssay (NCI)
